Measured values: patent US10987345B2, “Method for assessing the efficacy of IMiDs and composition or combination for use in treating IMiD sensitive diseases” (Klinikum Rechts Der Isar Der Technischen Universitat Munchen, priority 2014, dated 2021)

Columns and labels:
CD147 [1] = assay: Pulse chase analysis of CD147 protein maturation in MM1S cells; assay type: cell-based, human; settings: 35S-Met/Cys pulse-chase
Experimental: In a complementary approach using pulse-chase analysis, CD147 protein maturation from the immature core-glycosylated to the mature high-glycosylated form necessary for membrane localization was investigated. […] Importantly, treatment with MLN4924, an inhibitor of Cullin-RING ubiquitin ligases, had no effect on CD147 stability or processing, thereby further underscoring a ubiquitin-independent effect of CRBN on CD147 (FIG. 13h).
Labelling of MM1S cells with ^35S-Met/Cys was essentially performed as described previously. […] Newly translated proteins were metabolically labeled for 45 Minutes with methionine- and cysteine-free DMEM containing 0.2 mCi/ml [35S]-Met/Cys. Cells were then washed three times with PBS (37° C.) and incubated with DMEM for up to 24 hours.

MM cell lines [2] = assay: Cell proliferation / survival of MM cells (trypan blue exclusion); assay type: cell-based, human; settings: sensitive cells (MM1S), 10 μM lenalidomide, 72 hours
Experimental: MM cells were subjected to treatment with lenalidomide/DMSO for the indicated times or infected with lentiviral-shRNA. On days indicated, proliferation was assessed using the trypan blue exclusion method. Results are presented as ratios to DMSO, wildtype or sh_scramble controls.

MMP7 = MMP7 secretion in MM cell culture supernatants (ELISA); assay type: cell-based, human; settings: 10 μM, 96 h
Text: (§1) Supernatants were collected and snap-frozen for subsequent analysis. VEGF and MMP7 concentrations were, determined in an enzyme linked immunosorbent assay (ELISA) using kits RAB0507, and RAB0369 (VEGF and MMP7 respectively, both Sigma) according to the manufacturer's instructions. Results were normalized to protein concentration of corresponding cell lysates.

CD147 [3] = assay: Flow cytometry of CD147 cell surface expression in MM1S cells; assay type: cell-based, human; settings: lenalidomide 10 μM
Experimental: The secondary antibody was […] anti mouse IgG. After washing, stained cells were analysed for CD147 expression using a FACSCalibur (Becton Dickinson).

CD147 [4] = assay: CD147 surface expression on erythropoiesis in MDS patient bone marrow (flow cytometry); assay type: in vivo, human; settings: del(5q) MDS patients on lenalidomide treatment vs untreated del(5q) and non-del(5q) MDS
Text: After informed consent, bone marrow samples from patients with MDS were collected in heparin, lysed with Versalyse® (Beckman Coulter, Krefeld, Germany), stained with anti-human monoclonal fluorochrome-conjugated antibodies and analyzed by flow-cytometry on a Cytomics FC 500 analyzer (Beckman Coulter). The following antibodies were used: Beckman Coulter: CD45-ECD (clone J33), CD33-PE (clone D3HL60.251), CD14-PECy5 (clone RM052), CD7-PE (clone 8H8.1), CD3-PECy5 (clone UCHT1), CD19-PECy7 (clone J4,119), CD7-PE, GlyA-PE (clone 11E4B-7-6), CD34-PECy7 (clone 581) and CD147-FITC (clone HIM6) from BD Biosciences. Using a CD45 vs, SSC gating strategy monocytes, lymphocytes, granulocytes, progenitor cells and CD45low/-GlyA+ cells were identified, Gates were then placed on CD19+ B-cells, CD3+ and CD3-CD7+ NK cells within the lymphocyte gate; on CD33+ granulocytes and CD14+ monocytes; on CD45low/CD33+ CD34+ progenitor cells and on CD45low/-GlyA+ erythropoiesis. CD147 expression of CD45low/-GlyA+ erythropoiesis was then determined by histogram gating. Data are represented as median fluorescence intensity of CD147 relative to isotype-matched control. Data were analyzed using Kaluza® Flow Analysis Software (Beckman Coulter).

MM cell lines [5] = assay: Intra- and extracellular lactate measurement in MM cells; assay type: cell-based, human
Experimental: For analysis of intra- and extracellular lactate, lenalidomide or DMSO treated cells were centrifuged down. For extracellular lactate, the supernatant was collected and frozen; normal cell culture medium was used as control for normalization. For measurement of intracellular lactate, cell pellets were lysed in lysis buffer. Lactate content in cell lysates as well as in the supernatants were analysed with the cobas 8000 (Roche).

[6] = test system: del(5q) MDS bone marrow derived CD34+ cells; assay: Apoptosis (Annexin V/PI) in in vitro propagated del(5q) MDS CD34+ cells; assay type: cell-based, human; settings: 10 μM lenalidomide, erythroid differentiation, non-erythroid vs early erythroid (CD36+) cells
Experimental: Mononuclear cells from bone marrow aspirates were enriched for CD34^+ cells by magnetic bead selection (MACS, MiltenylBiotech) according to the manufacturer's instructions. CD34^+ cells were differentiated along the erythroid lineage essentially as known in the art. […] On day 7, 2 IU/ml erythropoietin (EPO Janssen-CILAG GmbH) was added to the cultures to stimulate erythropoiesis. Half medium changes were performed every third day and cells were harvested on day 14.
Cells were collected and washed with Annexin/PI buffer containing […], 1.62 mM CaCl2. Cell pellets were stained with CD34-FITC (BD Pharmingen, clone 581/CD34), CD147-PE (BD Pharmingen, done HIM6), CD33-PC5.5 (Beckmann Coulter, clone D3HL60.251), CD45 PE Cy7 (eBioscience, clone H130), CD36-APC Cy7 (BioLegend, clone 336213), primary CD235α-biotin (eBioscience, clone HIR2) and secondary streptavidin eFluor®450 (eBioscience) antibodies according to manufacturer's instructions. The combination of APC Annexin V (BD Pharmingen) and PI was added for the determination of apoptosis and necrosis. Single stained samples were used for compensation.
Flow cytometry was performed on a CyAn ADP LxP8 (Coulter-Cytomation) and data were analyzed using FlowJo software (TreeStar Inc.).

CD147/MCT1 complex = assay: Immunoblot analysis of CD147 and MCT1 protein levels in myeloma cells; assay type: cell-based, human; settings: for Destabilization of CD147/MCT1: 100 nM pomalidomide, 100 μM thalidomide
Experimental: HEK 293T and HeLa cells were grown in Dulbecco's modified Eagle's Medium (DMEM), each media containing 10% fetal bovine serum. (FBS). The human multiple myeloma cell lines MM1.S, U266, KMS-12-BM, RPMI 8226 and JJN3 were cultured in RPMI-1640 with 10% FBS. […] Sf9 insect cells (Life technologies) were cultured in Sf-900 II serum-free medium (SFM, Life technologies) supplemented with 10% heat-inactivated FBS and 10 μg/ml gentamycin. High Five cells (Invitrogen) were cultured in Express Five SFM supplemented with 10 mM L-glutamine and 10 μg/ml gentamycin. All cells tested mycoplasma negative by a PCR detection method.
Cell samples were lysed in lysis buffer (NaCl 150 mM, Tris-HCl 50 mM, MgCl2 5 mM, EDTA 1 mM, INP-40 0.1%, Glycerol 5% and inhibitors) for whole cell lysates, immunoprecipitations or pulldown experiments. Details of extract preparation, immunoprecipitation, and immunoblotting, were previously described. Briefly, the cellular lysates were centrifuged 15 min at 14 000 rpm at 4° C. to separate from cellular debris. Protein concentration in the supernatants was measured before Laemmli buffer was added. The lysates were separated by SDS-PAGE and blotted onto PVDF (polyvinylidene difluoride) membranes. After blotting, PVDF membranes were stained With. Ponceau solution to evaluate protein loading. After washing and blocking unspecific bindings in 5% milk; the membranes were incubated with primary antibodies. After addition of horseradish peroxidase coupled secondary antibodies, western blot membranes were developed using the ECL (enhanced chemoluminescence) method (SuperSignal West reagents from Thermo Scientific). For immunoprecipitations (IPs), cell lysates were incubated with Flag-M2 agarose beads (Sigma) for Flag-IPs, HA-7 agarose beads (Sigma) for HA-IPs, or protein-A sepharose beads (GE Healthcare) together with primary rabbit antibodies for binding of endogenous proteins (e.g. for CRBN-IP). For the experiments using a protein cross linker, DSS (Pierce) was added to the cells to a final concentration of 1 mM for 45 minutes at RT. The Cross linker was quenched by addition of Tris-HCl, pH 7.5 20 mM and cell lysis was performed as described, with the only exception of HEPES buffer 50 mM, pH 7.5 instead of Tris-HCl buffer. After washing the beads four times in lysis buffer, Laemmli buffer was added and proteins were analyzed by SDS-electrophoresis.

VEGF = VEGF secretion in MM cell culture supernatants (ELISA); assay type: cell-based, human; settings: 10 μM, 96 h
Text: as §1

IKZF1/3 = assay: Immunoblot analysis of IKZF1/IKZF3 in myeloma cells; assay type: cell-based, human; settings: MM1S cells; 10 μM lenalidomide, 100 nM pomalidomide, 100 μM thalidomide
Experimental: HEK 293T and HeLa cells were grown in Dulbecco's modified Eagle's Medium (DMEM), each media containing 10% fetal bovine serum. […] The human multiple myeloma cell lines MM1.S, U266, KMS-12-BM, RPMI 8226 and JJN3 were cultured in RPMI-1640 with 10% FBS. […] Sf9 insect cells (Life technologies) were cultured in Sf-900 II serum-free medium (SFM, Life technologies) supplemented with 10% heat-inactivated FBS and 10 μg/ml gentamycin. High Five cells (Invitrogen) were cultured in Express Five SFM supplemented with 10 mM L-glutamine and 10 μg/ml gentamycin. All cells tested mycoplasma negative by a PCR detection method.
Cell samples were lysed in lysis buffer (NaCl 150 mM, Tris-HCl 50 mM, MgCl2 5 mM, EDTA 1 mM, INP-40 0.1%, Glycerol 5% and inhibitors) for whole cell lysates, immunoprecipitations or pulldown experiments. […] Briefly, the cellular lysates were centrifuged 15 min at 14 000 rpm at 4° C. to separate from cellular debris. Protein concentration in the supernatants was measured before Laemmli buffer was added. The lysates were separated by SDS-PAGE and blotted onto PVDF (polyvinylidene difluoride) membranes. After blotting, PVDF membranes were stained With. […] After washing the beads four times in lysis buffer, Laemmli buffer was added and proteins were analyzed by SDS-electrophoresis.

Zebrafish larvae = assay: Zebrafish teratotoxicity phenotype at 3 dpf; assay type: in vivo; settings: for Phenotype after CD147 knock-down by morpholino: 0.1 mM or 0.25 mM morpholino injected, 3 dpf
Experimental: Briefly, Zebrafish larvae were injected with different concentrations of splice-Morpholinos targeting all 3 predicted CD147 isoforms in zebrafish or treated with 400 μM Thalidomide on the day of fertilization. On day and 3 after fertilization, the phenotypes of the larvae were analysed.
The wildtype strain AB was used in all experiments. All embryos were kept at 28.5° C. in E3 media (5 mM NaCl, 0.17 mM KCl, 0.33 mM CaCl2, 0.33 mM MgSO4) supplemented with 10^−5% methylene blue. All experiments were performed in accordance with animal protection standards of the Ludwig-Maximilians University Munich and were approved by the government of Upper Bavaria (Regierung von Oberbayem, Munich, Germany).
Knock-down of CD147 in zebrafish was done by microinjection of 2-4 pl of 0.1 mM or 0.25 mM antisense morpholino oligo (Gene Tools, LLC) targeting either a splice junction of CD147 (CD147 splice MO; exonic sequence in upper case: 5′-aagaggtgaagaacatacAAGTGTT-3′ (SEQ ID NO: 18) or the ATG start codon (CD147 ATG MO; 5′-[…]-3′ (SEQ. ID NO: 39) at the 1 cell stage. Injected eggs and controls were cultured at 28° C. in E3 buffer. For each experiment, 50 eggs were injected.
For thalidomide treatment, fertilized embryos were randomly split into two groups at 3 hours post fertilization (hpf): One group was transferred into E3 containing 0.1% DMSO, the other group into E3 with 400 μM thalidomide (Sigma-Aldrich) and kept at 28.5° C. for 3 days.
Larvae were analyzed for Phenotypes at 3 days post fertilization (dpf). For each experiment, 10 embryos were treated. CD147 splice MO-injected larvae were compared to control larvae and thalidomide treated larvae were compared to DMSO controls. Larvae were anesthetized with Tricaine (0.016% w/v) and mounted in 3% methylcellulose on coverslips. DIC images were taken with an Axioplan2 compound microscope (Zeiss).

CD147 [7] = assay: Semiquantitative RT-PCR verification of CD147 knockdown in zebrafish; assay type: in vivo; settings: CD147 splice morpholino at indicated concentrations
Experimental: For verification of efficient CD147 knock-down in zebrafish embryos, total RNA of larvae injected with CD147 splice morpholino or control was extracted using the QIAshredder and RNeasy Kit (both Qiagen); cDNA synthesis was performed as described above. PCR reactions were performed on the peqSTAR2x gradient thermocycler (Peqlab) following standard procedures and using the following primers: […]
One fifth of the PCR reaction was loaded onto an agarose gel and subjected to gel electrophoresis.

[8] = lenalidomide-sensitive MM cell lines

With `NS(=O)(=O)OC[C@@H]1C[C@@H](n2ccc3c(N[C@H]4CCc5ccccc54)ncnc32)C[C@@H]1O` [MLN4924] the “CD147 stability or processing” value (CD147 [1]) was “no effect”.

`Nc1cccc2c1CN(C1CCC(=O)NC1=O)C2=O` (centres unmarked) [lenalidomide] was tested, and the “CD147 de novo synthesis” value (CD147 [1]) was “no effect”, the “CD147 glycosylation as readout for maturation and membrane localization” value (CD147 [1]) was “substantially impaired” and the “Anti-myeloma effect of lenalidomide under induced overexpression of CD147 and MCT1” value (MM cell lines [2]) was “attenuated”. The MMP7 secretion (MMP7; [8]) was “significantly reduced”, the MMP7 secretion (MMP7; resistant MM cell lines) was “only minor effects” and the “CD147 cell surface expression” value (CD147 [3]) was “decreased”. For the same compound, the “CD147 surface expression in the erythropoietic compartment” value (CD147 [4]) was “attenuated to the level of non-del(5q) MDS samples”, the Intracellular lactate levels (MM cell lines [5]; [8]) was “significantly elevated” and the Intracellular lactate levels (MM cell lines [5]; resistant MM cell lines) was “only minor effects”. For the same compound, the “Lenalidomide-induced apoptosis by cell compartment” value [6] was “largely restricted to early erythroid cells”, the “Level of immature, core-glycosylated form of CD147” value (CD147/MCT1 complex; MM1S cells, 10 μM lenalidomide, time course) was “progressive accumulation” and the “Dose dependence of CD147 and MCT1 destabilization” value (CD147/MCT1 complex; MM1S cells, different concentrations, 72 hours) was “destabilizes CD147 and MCT1 in a dose dependent manner”. The “Destabilization of CD147/MCT1” value (CD147/MCT1 complex; MM1S cells, 10 μM lenalidomide) was “destabilize CD147/MCT1”, the “CD147 and MCT1 expression upon lenalidomide exposure” value (CD147/MCT1 complex; lenalidomide-resistant MM lines (KMS12BM, RPMI 8226)) was “remained unchanged” and the “CD147 and MCT1 stability upon lenalidomide exposure” value (CD147/MCT1 complex; lenalidomide-sensitive MM lines (MM1S, U266)) was “destabilization of CD147 and MCT1”. The VEGF secretion (VEGF; [8]) was “significantly reduced” and the VEGF secretion (VEGF; resistant MM cell lines) was “only minor effects”.

In the case of `Nc1cccc2c1C(=O)N(C1CCC(=O)NC1=O)C2=O` (centres unmarked) [pomalidomide], the IKZF1/3 degradation (IKZF1/3) was “restricted to lenalidomide and pomalidomide” and the “Destabilization of CD147/MCT1” value (CD147/MCT1 complex; MM1S cells, 10 μM lenalidomide) was “destabilize CD147/MCT1”.

In the case of `O=C1CCC(N2C(=O)c3ccccc3C2=O)C(=O)N1` (stereo not drawn) [thalidomide, α-N-phthalimido-glutarimide], the IKZF1/3 degradation (IKZF1/3) was “restricted to lenalidomide and pomalidomide”, the Teratotoxic phenotype (Zebrafish larvae; 400 μM thalidomide, 3 days post fertilization) was “teratotoxic phenotype, including reduced size of head, fins, and eyes” and the “Destabilization of CD147/MCT1” value (CD147/MCT1 complex; MM1S cells, 10 μM lenalidomide) was “destabilize CD147/MCT1”.

In the case of “ATG MO: antisense morpholino oligo targeting the ATG start codon of CD147, 5′-GCGCCAAAGAGCTTCTTTTCCATGC-3′ (SEQ. ID NO: 39) (all phosphorodiamidate morpholino (PMO))”, the “Phenotype after CD147 knock-down by morpholino” value (Zebrafish larvae) was “identical phenotypes as thalidomide treatment”.

In the case of “splice MO: antisense morpholino oligo targeting a splice junction of CD147, 5′-aagaggtgaagaacatacAAGTGTT-3′ (SEQ ID NO: 18) (antisense AAGAGGTGAAGAACATACAAGTGTT; all phosphorodiamidate morpholino (PMO))”, the “CD147 knockdown (RT-PCR)” value (CD147 [7]) was “efficient and dose dependent CD147 knockdown” and the “Phenotype after CD147 knock-down by morpholino” value (Zebrafish larvae) was “identical phenotypes as thalidomide treatment”.
